What follows are compounds tested on HL-60 (assay: Cytotoxicity against human HL60 cells).
Assay type: functional, cell-based
In the case of `COC(=O)[C@]12CC(=O)[C@H](C(C)C)CC(=O)/C(C)=C/CC/C(C)=C\C(=O)[C@H]1CC(C)=C1C[C@H](O)[C@](C)(O)[C@H]3CC[C@@](C)(O)[C@H](CC/C(C)=C/[C@@H]12)O3` [BISGLAUCUMLIDE E], the IC50 is reported as 41 µM.
`COC(=O)[C@]12CC(=O)[C@H](C(C)C)CC(=O)/C(C)=C\CC/C(C)=C/C(=O)[C@H]1CC(C)=C1C[C@H](OC(C)=O)[C@](C)(O)[C@H]3CC[C@@](C)(O)[C@H](CC/C(C)=C/[C@@H]12)O3` [BISGLAUCUMLIDE F] was tested, and the IC50 was 13.3 µM.
With `COC(=O)[C@]12CC(=O)[C@H](C(C)C)CC(=O)/C(C)=C/CC/C(C)=C/C(=O)[C@H]1CC(C)=C1C[C@H](O)[C@](C)(O)[C@H]3CC[C@](C)(O3)[C@@H](O)CC/C(C)=C/[C@@H]12` [BISGLAUCUMLIDE G] the IC50 was 58 µM.
For `COC(=O)[C@]12CC(=O)[C@H](C(C)C)CC(=O)/C(C)=C/CC/C(C)=C\C(=O)[C@H]1CC(C)=C1C[C@H](O)[C@](C)(O)[C@H]3CC[C@@](C)(O3)[C@@H](O)CC/C(C)=C/[C@@H]12` [BISGLAUCUMLIDE H], the IC50 was 47.8 µM.
`COC(=O)[C@]12CC(=O)/C=C(/C)CC/C=C(\C)C(=O)C[C@@H](C(C)C)C(=O)[C@H]1CC(C)=C1C[C@H](O)[C@](C)(O)[C@H]3CC[C@@](C)(O)[C@H](CC/C(C)=C/[C@@H]12)O3` [BISGLAUCUMLIDE I] gave an IC50 of 44.1 µM.
`COC(=O)[C@]12CC(=O)/C=C(\C)CC/C=C(\C)C(=O)C[C@@H](C(C)C)C(=O)[C@H]1CC(C)=C1C[C@H](OC(C)=O)[C@](C)(O)[C@H]3CC[C@@](C)(O)[C@H](CC/C(C)=C/[C@@H]12)O3` [BISGLAUCUMLIDE K] gave an IC50 of 29.8 µM.

From ChEMBL document CHEMBL1151967, “Cytotoxic biscembranes from the soft coral Sarcophyton glaucum” (J Nat Prod, 2009)
